Literature values as cited in US20210401895A1, “TREATMENT OF A DISEASE OF THE GASTROINTESTINAL TRACT WITH LIVE BIOTHERAPEUTICS” (Progenity, Inc., priority 2017, published 2021).

Columns and labels:
[1] = test system: malignant or hyperactive melanocytes
[2] = test system: Propionibacterium acnes and Staphylococcus epidermidis; conditions: particularly Propionibacterium acnes and Staphylococcus epidermidis
[3] = test system: dermatophytes, yeasts, moulds and other fungi; conditions: broad spectrum of dermatophytes

SMILES: O=C(O)CCCCCCCC(=O)O [Azelaic acid]
- effect on malignant or hyperactive melanocytes [1]: cytotoxic effect
- effects on aerobic and anaerobic organisms [2]: antibacterial effects

SMILES: Cc1cc(C2CCCCC2)n(O)c(=O)c1 [Ciclopirox]
- activity against fungi [3]: fungicidal, fungistatic and sporicidal activity
